We go through 16 molecules from patent publication US20190085024A1, “Alpha-Ketoamide Inhibitors Of Cysteine Proteases” (Phelix Therapeutics, priority 2017, published 2019).

The target in one assay is Cathepsin L (Homo sapiens, UniProt P07711). The assay is described as follows: Cathepsin L enzyme assay. The assay is classed as biochemical. The note with it: Ki by Morrison equation; pH 5.5, substrate Z-Phe-Arg-Amc; read-out: Cat L. An excerpt:
Two wells contained DMSO only for controls.
Velocity was converted to μM/sec.

In assay [1] the test system is EBOV WT (Ebola Wild Type). The assay is described as follows: microbe, parasite or virus in culture. It counts as cell-based. The note with it: Zaire ebolavirus, read-out: EBOV WT (μM) (Ebola Wild Type).
The next assay addresses Cathepsin B (Homo sapiens, UniProt P07858). Description: Cathepsin B enzyme assay. The note with it: Cat B (μM), Ki by Morrison equation; pH 6.0, substrate Z-Phe-Arg-Amc.
The subject of another assay is MERS WT. Description: microbe, parasite or virus in culture. The assay is classed as cell-based. The note with it: Middle East respiratory syndrome-related coronavirus, read-out: MERS WT (μM).
For the next assay, the target named is Calpain. Description: Calpain enzyme assay. It counts as biochemical. As to conditions: Ki by Morrison equation; pH 7.5, 5 mM CaCl2.
A further assay has as its target Cat S (Homo sapiens, UniProt P25774). Description: Cat S inhibition. It counts as biochemical.
In the next assay the target is T1, Cat K (Homo sapiens, UniProt P43235).
T1 sequence (P43235 115-329): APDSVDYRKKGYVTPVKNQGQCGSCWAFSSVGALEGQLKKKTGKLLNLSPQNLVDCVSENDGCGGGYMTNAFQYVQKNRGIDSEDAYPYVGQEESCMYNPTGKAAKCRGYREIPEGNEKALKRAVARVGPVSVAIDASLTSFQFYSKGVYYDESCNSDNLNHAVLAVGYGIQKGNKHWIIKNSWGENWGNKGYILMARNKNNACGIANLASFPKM
The assay is described as follows: Cat K inhibition. It counts as biochemical.

Structures are written as SMILES. *1 amine or outer side, *2 acyl side, *3 side chain or, on linkers, in order; H or OH if unused. Where a SMILES comes first, the peptide text is derived from it. [ ]: non-standard residue; d: D form. The star is where a group is joined. 2Nal = N[CH](Cc1ccc2ccccc2c1)C(=O)O; X2 = C=CCOCC(N[*:1])C(=O)C(=O)[*:2]; Ser(allyl) = C=CCOC[CH](N)C(=O)O; PhAc = O=C(Cc1ccccc1)*; Allyl = C=CC*

Chain of Cat S (P25774 115-331): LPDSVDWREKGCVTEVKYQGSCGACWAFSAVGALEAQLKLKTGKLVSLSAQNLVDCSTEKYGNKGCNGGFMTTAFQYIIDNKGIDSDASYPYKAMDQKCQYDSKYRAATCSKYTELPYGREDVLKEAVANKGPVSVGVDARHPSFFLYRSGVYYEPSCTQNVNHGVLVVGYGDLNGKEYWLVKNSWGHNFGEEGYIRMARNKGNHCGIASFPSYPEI
Chain of Cathepsin L (P07711 114-333, species assumed): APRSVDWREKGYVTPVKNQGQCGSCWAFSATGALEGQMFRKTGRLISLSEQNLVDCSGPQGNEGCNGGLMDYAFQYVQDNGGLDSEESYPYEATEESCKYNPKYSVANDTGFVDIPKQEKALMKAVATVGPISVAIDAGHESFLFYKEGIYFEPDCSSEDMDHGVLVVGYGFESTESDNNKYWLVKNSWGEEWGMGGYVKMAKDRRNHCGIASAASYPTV

As to `CC(C)CC(NC(=O)Cc1ccccc1)C(=O)NC(C)C(=O)C(=O)NC(C)C(=O)NC(C)(C)C(N)=O` (stereo not drawn) [PHELIX183, N-(4-((1-((1-amino-2-methyl-1-oxopropan-2-yl)amino)-1-oxopropan-2-yl)amino)-3,4-dioxobutan-2-yl)-4-methyl-2-(2-phenylacetamido)pentanamide], the Ki worked out at 195 nM on Cathepsin L, 7.74 µM on Cathepsin B and 153 nM on Calpain. Moreover, the IC50 in assay [1] came out at 29.1 µM; in the assay with MERS WT, 407 µM.
The matching figures for `CC(C)CC(NC(=O)OCc1ccccc1)C(=O)NC(C)C(=O)C(=O)NCCC(=O)NC(Cc1cccc(C#N)c1)C(N)=O` (stereo not drawn) [PHELIX185, benzyl (1-((4-((3-((1-amino-3-(3-cyanophenyl)-1-oxopropan-2-yl)amino)-3-oxopropyl)amino)-3,4-dioxobutan-2-yl)amino)-4-methyl-1-oxopentan-2-yl)carbamate]: 102 nM, 2.1 µM, 68.4 nM, 13.3 µM and above 10 µM.
In the case of `CC(C)CC(NC(=O)OCc1ccccc1)C(=O)NC(C)C(=O)C(=O)N1CCC(C(=O)NC(Cc2ccccc2)C(N)=O)CC1` (stereo not drawn) [PHELIX186, benzyl (1-((4-(4-((1-amino-1-oxo-3-phenylpropan-2-yl)carbamoyl)piperidin-1-yl)-3,4-dioxobutan-2-yl)amino)-4-methyl-1-oxopentan-2-yl)carbamate], the Ki at Cathepsin L came out at 4320 nM; on Cathepsin B it was 60 µM; on Calpain, 18100 nM. Moreover, the IC50 in assay [1] is 57.5 µM; in the assay on MERS WT, above 10 µM.
The matching figures for `CC(C)CC(NC(=O)OCc1ccccc1)C(=O)NC(C)C(=O)C(=O)NC(Cc1ccncc1)C(N)=O` (stereo not drawn) [PHELIX198, benzyl (1-((4-((1-amino-1-oxo-3-(pyridin-4-yl)propan-2-yl)amino)-3,4-dioxobutan-2-yl)amino)-4-methyl-1-oxopentan-2-yl)carbamate]: 33.9 nM, 7.3 µM, 22 nM, 4.03 µM and above 10 µM.
Regarding `C=CCOCC(NC(=O)Cc1ccccc1)C(=O)NC(CC(C)C)C(=O)NC(COCC=C)C(=O)C(=O)NCC(=O)NC(Cc1ccc2ccccc2c1)C(N)=O` (stereo not drawn) [PHELIX200, 2-(3-(allyloxy)-2-(2-phenylacetamido)propanamido)-N-(1-(allyloxy)-4-((2-((1-amino-3-(naphthalen-2-yl)-1-oxopropan-2-yl)amino)-2-oxoethyl)amino)-3,4-dioxobutan-2-yl)-4-methylpentanamide] (PhAc-[Ser(allyl)]L[X2]G[2Nal]-NH2; configuration not given here), the Ki at Cathepsin L came to 1.51 nM; at Cathepsin B it was 0.0881 µM; at Calpain, 6.57 nM. Besides, the IC50 in assay [1] was 6.4 µM; in the assay on MERS WT, above 10 µM.
The matching figures for `C=CCOCC(NC(=O)C(CC(C)C)NC(=O)C(Cc1ccc(OCC=C)cc1)NC(=O)Cc1ccccc1)C(=O)C(=O)NCC(=O)NC(Cc1ccc2ccccc2c1)C(N)=O` (stereo not drawn) [PHELIX202, N-(1-(allyloxy)-4-((2-((1-amino-3-(naphthalen-2-yl)-1-oxopropan-2-yl)amino)-2-oxoethyl)amino)-3,4-dioxobutan-2-yl)-2-(3-(4-(allyloxy)phenyl)-2-(2-phenylacetamido)propanamido)-4-methylpentanamide] (PhAc-Y(Allyl)L[X2]G[2Nal]-NH2; configuration not given here): 24 nM, 0.692 µM, 25.3 nM, above 10 µM and above 10 µM.
The matching figures for `CC(NC(=O)C(Cc1cccnc1)NC(=O)Cc1ccccc1)C(=O)C(=O)NC(Cc1ccccc1)C(=O)NC(C)(C)C(N)=O` (stereo not drawn) [PHELIX211, N-(1-((1-amino-2-methyl-1-oxopropan-2-yl)amino)-1-oxo-3-phenylpropan-2-yl)-2-oxo-3-(2-(2-phenylacetamido)-3-(pyridin-3-yl)propanamido)butanamide]: 218 nM, 0.532 µM, above 10000 nM, 209 µM and above 10 µM.
Turning to `CC(NC(=O)[C@H](Cc1ccccn1)NC(=O)Cc1ccccc1)C(=O)C(=O)N[C@@H](Cc1ccccc1)C(=O)N[C@@H](Cc1ccccc1)C(N)=O` (stereo partly drawn) [PHELIX219, N-(1-((1-amino-1-oxo-3-phenylpropan-2-yl)amino)-1-oxo-3-phenylpropan-2-yl)-2-oxo-3-(2-(2-phenylacetamido)-3-(pyridin-2-yl)propanamido)butanamide], the Ki was 2910 nM on Cathepsin L, 7.52 µM on Cathepsin B and above 10000 nM at Calpain. Also, the IC50 (in assay [1]; in the assay with MERS WT) was above 10 µM each time.
Turning to `CC(NC(=O)C(Cc1ccccc1)NC(=O)c1ccccc1F)C(=O)C(=O)NC(Cc1ccccc1)C(=O)NC(C)(C)C(N)=O` (stereo not drawn) [PHELIX224, N-(1-((4-((1-((1-amino-2-methyl-1-oxopropan-2-yl)amino)-1-oxo-3-phenylpropan-2-yl)amino)-3,4-dioxobutan-2-yl)amino)-1-oxo-3-phenylpropan-2-yl)-2-fluorobenzamide], the Ki at Cathepsin L was 45.7 nM; at Cat S, 33.2 nM; on Cathepsin B it was 0.422 µM; on Calpain, above 10000 nM. For the same molecule, the IC50 in assay [1] is 11 µM; in the assay with MERS WT, above 10 µM.
On to `C=CCOCC(NC(=O)C(=O)C(COCC=C)NC(=O)C(CC(C)C)NC(=O)OCc1ccccc1)C(=O)NC(Cc1ccc2ccccc2c1)C(N)=O` (stereo not drawn) [PHELIX228, benzyl (1-((1-(allyloxy)-4-((3-(allyloxy)-1-((1-amino-3-(naphthalen-2-yl)-1-oxopropan-2-yl)amino)-1-oxopropan-2-yl)amino)-3,4-dioxobutan-2-yl)amino)-4-methyl-1-oxopentan-2-yl)carbamate], for which the results for the Ki at Cathepsin L, at Cathepsin B and on Calpain were 0.08 nM, 0.276 µM and 25.3 nM, respectively. Besides, in assay [1], the IC50 turned out to be 3.02 µM.
For the molecule `CC(NC(=O)C(Cc1ccccc1)NC(=O)Cc1ccccc1)C(=O)C(=O)NC(Cc1ccccc1)C(=O)NC(C)(C)C(=O)NCCc1ccccc1` (stereo not drawn) [PHELIX230, N-(1-((2-methyl-1-oxo-1-(phenethylamino)propan-2-yl)amino)-1-oxo-3-phenylpropan-2-yl)-2-oxo-3-(3-phenyl-2-(2-phenylacetamido)propanamido)butanamide], the Ki at Cathepsin L is 6.78 nM; at Cat S, 11.5 nM; at Cathepsin B, 0.236 µM; at Calpain, above 10000 nM; at Cat K, 310 nM.
Turning to `CC(NC(=O)C(Cc1ccccc1)NC(=O)Cc1ccccc1)C(=O)C(=O)NC(Cc1ccccc1)C(=O)NC(C)(C)C(=O)NCCN1CCOCC1` (stereo not drawn) [PHELIX231, N-(1-((2-methyl-1-((2-morpholinoethyl)amino)-1-oxopropan-2-yl)amino)-1-oxo-3-phenylpropan-2-yl)-2-oxo-3-(3-phenyl-2-(2-phenylacetamido)propanamido)butanamide], the Ki at Cathepsin L worked out at 13.7 nM; at Cat S it was 200 nM; at Cathepsin B, 2.3 µM; on Calpain, 3790 nM; at Cat K, 4890 nM.
In the case of `CC(NC(=O)C(Cc1ccccc1)NC(=O)Cc1ccccc1)C(=O)C(=O)NC(Cc1cc2ccccc2[nH]1)C(=O)NC(C)(C)C(N)=O` (stereo not drawn) [PHELIX232, N-(1-((1-amino-2-methyl-1-oxopropan-2-yl)amino)-3-(1H-indol-2-yl)-1-oxopropan-2-yl)-2-oxo-3-(3-phenyl-2-(2-phenylacetamido)propanamido)butanamide], the Ki at Cathepsin L was 213 nM; at Cat S it was 147 nM; on Cathepsin B, 19.9 µM; at Calpain, above 10000 nM; at Cat K, 1840 nM.
The matching figures for `CCC(C)C(NC(=O)C(Cc1ccccc1)NC(=O)Cc1ccccc1)C(=O)C(=O)NC(Cc1ccccc1)C(=O)NC(C)(C)C(N)=O` (stereo not drawn) [PHELIX233, N-(1-((1-amino-2-methyl-1-oxopropan-2-yl)amino)-1-oxo-3-phenylpropan-2-yl)-4-methyl-2-oxo-3-(3-phenyl-2-(2-phenylacetamido)propanamido)hexanamide]: 8.09 nM, 2.55 nM, 0.223 µM, above 10000 nM and 354 nM.
`CC(NC(=O)C(Cc1ccccc1)NC(=O)Cc1ccccc1)C(=O)C(=O)NC(Cc1ccc(-c2ccccc2)cc1)C(=O)NC(C)(C)C(N)=O` (stereo not drawn) [PHELIX241, N-(3-([1,1′-biphenyl]-4-yl)-1-((1-amino-2-methyl-1-oxopropan-2-yl)amino)-1-oxopropan-2-yl)-2-oxo-3-(3-phenyl-2-(2-phenylacetamido)propanamido)butanamide]: the Ki at Cathepsin L is 1360 nM; on Cat S, 2740 nM; on Cathepsin B, above 10 µM; at Calpain, above 10000 nM.
On to `CCCCC(NC(=O)C(=O)C(C)NC(=O)C(Cc1ccccc1)NC(=O)Cc1ccccc1)C(=O)NC(C)(C)C(N)=O` (stereo not drawn) [PHELIX242, N-(1-amino-2-methyl-1-oxopropan-2-yl)-2-(2-oxo-3-(3-phenyl-2-(2-phenylacetamido)propanamido)butanamido)hexanamide], for which the Ki at Cathepsin L is 7520 nM; on Cat S, 555 nM; on Cathepsin B it was above 10 µM; on Calpain it was above 10000 nM.
